For 9 molecules, EC50 results are on record in patent US9227919B2, “Arylalkylamine compounds as calcium sensing receptor modulators” (Lupin Limited, priority 2012, dated 2016).

Counter-ions that a name gives are not always drawn.

The test deals with T1, Calcium Sensing Receptor (CaSR) (Homo sapiens, UniProt P41180).
T1 construct: expressed in transfected cells
T1 sequence (P41180 20-1078): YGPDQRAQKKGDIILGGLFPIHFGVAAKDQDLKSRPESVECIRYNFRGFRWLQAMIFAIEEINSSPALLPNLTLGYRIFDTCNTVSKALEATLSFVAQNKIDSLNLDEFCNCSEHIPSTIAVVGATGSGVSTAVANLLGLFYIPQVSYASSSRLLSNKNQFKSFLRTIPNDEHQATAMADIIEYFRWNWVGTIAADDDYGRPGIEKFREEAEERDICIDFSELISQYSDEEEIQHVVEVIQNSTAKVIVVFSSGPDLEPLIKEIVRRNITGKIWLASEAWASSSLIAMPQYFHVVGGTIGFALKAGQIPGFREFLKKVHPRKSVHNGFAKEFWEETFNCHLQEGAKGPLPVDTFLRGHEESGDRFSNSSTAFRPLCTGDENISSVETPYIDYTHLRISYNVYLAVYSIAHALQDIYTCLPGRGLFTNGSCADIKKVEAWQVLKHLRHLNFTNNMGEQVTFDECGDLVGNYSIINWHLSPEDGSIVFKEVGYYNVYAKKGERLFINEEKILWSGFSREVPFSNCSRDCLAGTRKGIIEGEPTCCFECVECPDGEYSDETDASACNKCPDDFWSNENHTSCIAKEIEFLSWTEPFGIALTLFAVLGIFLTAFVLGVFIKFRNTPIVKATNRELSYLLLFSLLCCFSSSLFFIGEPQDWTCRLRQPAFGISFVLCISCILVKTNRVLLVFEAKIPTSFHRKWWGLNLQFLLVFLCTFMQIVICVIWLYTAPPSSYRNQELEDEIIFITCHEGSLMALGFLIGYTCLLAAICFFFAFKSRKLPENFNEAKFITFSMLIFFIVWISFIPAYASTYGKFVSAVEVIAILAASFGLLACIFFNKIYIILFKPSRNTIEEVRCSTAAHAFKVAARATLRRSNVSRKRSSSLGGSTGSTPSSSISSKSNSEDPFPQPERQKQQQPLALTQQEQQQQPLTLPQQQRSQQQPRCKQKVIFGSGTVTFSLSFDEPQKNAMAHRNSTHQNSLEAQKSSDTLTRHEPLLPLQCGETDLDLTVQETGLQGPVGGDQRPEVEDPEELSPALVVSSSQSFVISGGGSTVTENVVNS
In words: In-vitro assay of calcimimetics through modulation of Calcium Sensing Receptor (intracellular calcium increase, FLIPR). Conditions: stably transfected HEK293 cells expressing hCaSR; Fluo4NW dye; 0.3 mM CaCl2; 8-point assay; read-out: EC50 Range. The test is classed as cell-based. How it is done: Certain illustrative compounds within the scope of the invention are screened for CaSR activity according to the procedure given below. The screening of the compounds may also be carried by other methods and procedures known to skilled in the art.
In-vitro assay method of Calcimimetics through modulation of Calcium Sensing Receptor (CaSR):
The ability of the compounds to modulate Calcium sensing receptor is determined by measuring an increase in intracellular calcium [Ca^2+]i. Stably transfected HEK293 cells expressing hCaSR_pTriEx-3 hygro vector are developed. Cells are grown overnight on a 96-well plate to 80% confluency in Ham's F12 containing 20% FBS at 37° C., 5% CO2. Subsequently, cells are washed extensively with 20 mM HEPES buffer containing 126 mM […], 1 mM MgCl2 and 4 mM KCl to remove serum components that might interfere with the assay. Cells are loaded with calcium sensing Fluo4NW dye in HEPES base buffer containing 0.1% BSA and lmg/ml glucose for 30 minutes to measure changes in intracellular calcium. The activities of the compounds are measured in FLIPR using 0.3 mM CaCl2 in 20 mM HEPES base buffer. The effectiveness of the compound to modulate receptor activity is determined by calculating the EC50 responses for that compound in an 8-point assay and plotted using GraphPad Prism 5.
The compounds prepared were tested using the above assay procedure and the results obtained are given below.
On the technique in general: Calcium flux is commonly read through the fluorescence of an indicator in the cells.

For the molecule `C[C@@H](NCC1Cc2ccccc2C(c2cccc(C(=O)O)c2)C1)c1cccc2ccccc12` (single isomer, unassigned) [Example 2c, hydrochloride], the EC50 fell in the range of 20 to 50 nM.

Take `Cc1cc(C2CC(N[C@H](C)c3cccc4ccccc34)Cc3ccccc32)ccc1C(=O)O` (stereo partly drawn) [Example 23, 2-Methyl-4-(3-(((R)-1-(naphthalen-1-yl)ethyl)amino)-1,2,3,4-tetrahydronaphthalen-1-yl)benzoic acid hydrochloride]: the EC50 was in the range of 20 to 50 nM.

Regarding `Cc1ccc(C(=O)O)cc1N1CC(CN[C@H](C)c2cccc3ccccc23)Cc2ccccc21` (single isomer, unassigned) [Example 70b, hydrochloride], the EC50 fell in the range of 50 to 200 nM.

As to `C[C@@H](NCC1Cc2ccccc2C(c2cccc(C(=O)O)c2)C1)c1cccc2ccccc12` (single isomer, unassigned) [Example 2a, hydrochloride], the EC50 is less than 20 nM.

`Cc1ccc(C2C[C@H](CN[C@H](C)c3ccc(F)c4ccccc34)Cc3ccccc32)cc1C(=O)O` (single isomer, unassigned) [Example 19b, hydrochloride]: the EC50 lay within 20 to 50 nM.

On to `C[C@@H](NCC1Cc2ccccc2C(c2ccc(F)c(C(=O)O)c2)C1)c1cccc2ccccc12` (single isomer, unassigned) [Example 7a, hydrochloride], for which the EC50 is less than 20 nM.

Regarding `Cc1ccc(C2CC(CN[C@H](C)c3cccc4ccccc34)Cc3ccccc32)c(C)c1C(=O)O` (single isomer, unassigned) [Example 10a, hydrochloride], the EC50 is less than 20 nM.

As for `Cc1ccc(C2CC(CN[C@H](C)c3cccc4ccccc34)Cc3ccccc32)cc1C(=O)O` (single isomer, unassigned) [Example 8c, hydrochloride], the 50% effective concentration (EC50) lay within 50 to 200 nM.

As for `Cc1cc(C(=O)O)cc(C2CC(CN[C@H](C)c3cccc4ccccc34)Cc3ccccc32)c1` (single isomer, unassigned) [Example 9b, hydrochloride], the EC50 was in the range of 20 to 50 nM.

The term EC50 denotes the midpoint of the concentration-response curve.
